Assays:
[1] = system: phosphorylated ERK downstream of KRAS G12C in MIA PaCa2 cells; assay: Cell p-ERK detection experiment (HTRF) in MIA PaCa2; format: cell-based, human; conditions: Homo sapiens, MIA PaCa-2, 2 h, MIA PaCa2 cells, 2 hours with compound, Advance ERK phospho-T202/Y204 HTRF kit; read-out: p-ERK IC50
Source text: Raw materials and instruments: MIA PaCa-2 purchased from ATCC; article number: CRL-1420; batch number: 63143594; DMEM purchased from Gibco; article number: 11995-065; batch number: 2186878; FBS purchased from Gibco; article number: 10099-141; batch number: 2109290CP; Horse serum purchased from Gibco; article number: 16050-122; batch number: 1818976; Trypsin-EDTA purchased from Gibco; article number: 25200-072; batch number: 2085552; PS purchased from Gibco; article number: 15140-122; batch number: 2145451; DMSO purchased from VWR AMRESCO; article number: 0231-500ML; batch number: 0457C072; 96-well cell culture plate purchased from Corning; article number: 3599; batch number: 22718601; white opaque 96-well plate purchased from Cisbio; article number: 66PL96025; batch number: N°05; Advance ERK phospho-T202/Y204 kit purchased from Cisbio; article number: 64AERPEH; batch number: 11D; microplate reader purchased from PerkinElmer; model: Envision MLD2105-0020; equipment number 1050369.
MIA PaCa2 was a KRAS G12C mutant human pancreatic cancer cell line cultured in 10% FBS+2.5% Horse serum DMEM culture medium. Cells at logarithmic growth stage were taken, digested with trypsin-EDTA, then collected and counted, and 2.5E4 cells were inoculated in a 96-well cell culture plate and cultured overnight. A 3.16-fold gradient concentration stock solution of 1000× compound was prepared with DMSO, and diluted 200-fold to 5× compound stock solution with culture medium. On the second day after cell inoculation, 5× compound stock solution was added to each cell culture well, with a final concentration of 1× and a DMSO content of 0.1%. DMSO was used as experimental control (control). After the compound was added and cultured for two hours, the residual culture medium was removed. 50 μL of cell lysate (from Advance ERK phospho-T202/Y204 kit, the same below) was added to each well, mixed well and incubated for 30 minutes, and then 16 μL of the mixed solution was transferred to a white opaque 96-well plate, and 16 μL of cell lysate was added to the blank wells. After the transfer was completed, 4 μL of p-ERK HTRF antibody (from Advance ERK phospho-T202/Y204 kit) mixture was added to each well, incubated for 4 hours, and the fluorescence value was read with the microplate reader. The inhibition rate of the compound IR (%)=(RLU control -RLU compound)/(RLU control-RLU blank)×100% was calculated. The gradient dilution concentration of the compound and the corresponding cell proliferation inhibition rate were fitted by Prism 8 four-parameter method, and the IC50 value was calculated. The compounds prepared in the above embodiments of the present disclosure have inhibitory activity of 0.0001 μM to 1 μM on the phosphorylated ERK level downstream of the cell channel of KRAS G12C protein mutant; some compounds have inhibitory activity of 0.001 μM to 1 μM or 0.001 μM to 0.5 μM on phosphorylated ERK level downstream of cell channel of KRAS G12C protein mutant.

[2] = molecular target: T1, KRAS G12C (Homo sapiens, UniProt P01116, G12C); assay: KRAS G12C NEA-HTRF experiment (SOS1-catalyzed displacement of GDP by GTP); format: biochemical
T1 construct: purchased Reactionbiology
T1 sequence (P01116 1-188 isoform P01116-2 G12C): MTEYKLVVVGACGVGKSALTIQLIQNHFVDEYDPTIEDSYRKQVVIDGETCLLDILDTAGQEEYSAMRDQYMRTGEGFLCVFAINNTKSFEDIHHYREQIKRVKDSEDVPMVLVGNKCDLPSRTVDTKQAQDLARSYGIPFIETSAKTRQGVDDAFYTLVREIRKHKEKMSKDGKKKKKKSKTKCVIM
Source text: Raw materials and instruments: KRAS G12C (his-tag) purchased from Reactionbiology; batch number 3496; SOS1 purchased from Reactionbiology; batch number: 3501; GTP purchased from Sigma; article number: G8877; batch number: SLBV1450; Tris-HC1 purchased from Sigma; EDTA purchased from absin; article number: abs42017668; batch number: JE20; NaCl purchased from Sigma; article number: 55886; batch number: SLBW4193; MgCl2 purchased from Shyuanye; article number: R21455; batch number: L07S9G69806; HEPES purchased from Life Technologies; article number: 15630-080; batch number: 2037042; DTT purchased from Thermo Fisher; article number: R0862; batch number: 00608918; Triton X-100 purchased from Sigma; article number: T8787-100 ML; batch number: SLBW7103; DY647-labeled GDP purchased from Jena Bioscience; article number: NU-840-647P1; batch number: BM019-045; Anti-6H1S-Tb purchased from Cisbio; article number: 61H12TLA; batch number: 13A; Bradford Assay Kit purchased from Thermo Fisher; article number: 23246; batch number: UG287474; white opaque 96-well plate purchased from Cisbio; article number: 66PL96025; batch number: N°06; NAP-5 column purchased from GE Healthcare; article number: 17085301; batch number: 16995164; mircoplate reader purchased from PerkinElmer; model: Envision MLD2105-0020; equipment number 1050369. The effect of compounds on SOS1-catalyzed displacement of GDP by GTP on KRAS protein was examined using a homogeneous time-resolved fluorescence (HTRF) method. 30 μM 6×his-tagged KRAS G12C recombinant protein was incubated with 80 μM fluorescent dye DY647-labeled GDP in labeling buffer (1 mM DTT, 7.5 mM EDTA, 25 mM Tris-HCl, 45 mM NaCl) at 20° C. in the dark for 2 hours, purified using NAP-5 column, and then protein quantification was performed with Bradford Assay Kit after purification to determine the concentration of KRAS […] 3.16-fold gradient concentration stock solution of 1000× compound was prepared with DMSO, and diluted 250-fold to 4× compound stock solution with reaction buffer (40 mM HEPES, 10 mM MgCl2, 1 mM DTT, 0.002% Triton X-100). KRAS G12C-GDP/Tb working solution (40 nM KRAS […] Tb) and SOS1/GTP working solution (0.2 μM SOS1, 200 μM GTP) were prepared using the reaction buffer. A white opaque 96-well plate was taken, and 5 μL of 4× compound stock solution and 10 μL of KRAS G12C-GDP/Tb working solution were added to each well. 5 μL of reaction buffer instead of 4x compound stock solution was used in the control well. After incubation in the dark for 15 minutes at 20° C., 5μL of SOS1/GTP working solution was added thereto, and the fluorescence value (excitation wavelength: 320 nm, emission wavelength: 615 nm and 665 nm) was read after incubating at 20° C. in the dark for 2 hours. Another T0 group was set up with 10 μL reaction buffer+10 μL KRAS G12C-GDP/Tb working solution, and the fluorescence value was read directly by the microplate reader. The fluorescence signal ratio RLU=(665 nm signal/615 nm signal)×10^4; and the compound inhibition rate IR (%)=(RLUcompound-RLUcontrol)/(RLUT0-RLUcontrol)×100% were calculated. The IC50 value was calculated by fitting the gradient dilution concentration of compound and the corresponding inhibition rate with the four-parameter method. The NEA activity of the compounds prepared in the above embodiments of the present disclosure was 0.0001 μM to 1 μM; the inhibitory activity of some compounds on KRAS G12C mutant MIA PaCa-2 cells was 0.001 μM to 0.5 μM or 0.001 μM to 0.1 μM.

[3] = system: KRAS G12C mutant NCI-H358 cells; assay: Cell proliferation inhibition experiment, 3D spheroid, CellTiter-Glo, NCI-H358; format: cell-based, human; conditions: Homo sapiens, NCI-H358, 120 h, NCI-H358 (KRAS G12C mutant) 3D spheroid, 5 days with compound, CellTiter-Glo; read-out: H358 IC50
How it was run: (§1)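 NCI-H358 (800 cells/well, RPMI-1640) and A549 (400 cells/well, F-12K) grown overnight as 3D spheroids in 2% FBS medium, then exposed 5 days to 3.16-fold compound dilutions at 0.1% DMSO. Viability measured by CellTiter-Glo luminescence; inhibition relative to DMSO and medium blank, IC50 from four-parameter fit.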

[4] = system: A549 cells (KRAS G12S mutant); assay: Cell proliferation inhibition experiment, 3D spheroid, CellTiter-Glo, A549; format: cell-based, human; conditions: Homo sapiens, A549, 120 h, A549 (KRAS G12S mutant) 3D spheroid, 5 days with compound, CellTiter-Glo; read-out: A549 IC50
How it was run: as §1

Row | Structure (SMILES) | IC50 [1] [nM] | IC50 [2] [nM] | IC50 [3] [nM] | IC50 [4] [nM]
1 | C=CC(=O)N1CCN2C(=O)c3c(N4CC(N5CC(C(F)(F)F)C5)CC4(C)C)nc(-c4ccccc4F)c(Cl)c3OC[C@H]2C1 (single isomer, unassigned) [Z608-2] | 286 | 75.8 |  | 
2 | C=CC(=O)N1CCN2C(=O)c3c(N4C[C@@H](N5CC(F)C5)CC4(C)C)nc(-c4ccccc4F)c(F)c3OC[C@H]2C1 [Z654-1, (R)-8-acryloyl-4-fluoro-1-((S)-4-(3-fluoroazetidin-1-yl)-2,2-dimethylpyrrolidin-1-yl)-3-(2-fluorophenyl)-6,6a,7,8,9,10-hexahydro-12H-pyrazino[2,1-c]pyrido[3,4-f][1,4]oxazepin-12-one] | 1720 | 1820 |  | 
3 | C=CC(=O)N1CCN2C(=O)c3c(N4C[C@H](NCC(F)(F)F)CC4(C)C)nc(-c4ccccc4F)c(Cl)c3OC[C@H]2C1 (single isomer, unassigned) [Z662-2] | 586 | 235 |  | 

These reach a lower IC50 [1]. Values come first.

Row | IC50 [1] [nM] | IC50 [2] [nM] | IC50 [3] [nM] | IC50 [4] [nM] | Structure (SMILES)
4 | 73 |  | 7 | 8680 | C=CC(=O)N1CCN2C(=O)c3c(Oc4ccccc4C(C)C)nc(-c4c(O)cccc4F)c(Cl)c3OC[C@H]2C1 [Z18, (6aR)-8-acryloyl-4-chloro-3-(2-fluoro-6-hydroxyphenyl)-1-(2-isopropylphenoxy)-6,6a,7,8,9,10-hexahydro-12H-pyrazino[2,1-c]pyrido[3,4-f][1,4]oxazepin-12-one]
5 | 93 | 31.5 |  |  | C=CC(=O)N1CCN2C(=O)c3c(N4CC(N(C)CC)CC4(C)C)nc(-c4ccccc4F)c(Cl)c3OC[C@H]2C1 (stereo partly drawn) [Z657, (6aR)-8-acryloyl-4-chloro-1-(4-(methylethylamine)-2,2-dimethylpyrrolidin-1-yl)-3-(2-fluorophenyl)-6,6a,7,8,9,10-hexahydro-12H-pyrazino[2,1-c]pyrido[3,4-f][1,4]oxazepin-12-one]
6 | 260 | 340 |  |  | C=CC(=O)N1CCN2C(=O)c3c(N4C[C@H](C)N(C)C[C@@H]4C)nc(-c4ccccc4F)c(Cl)c3OC[C@H]2C1 [Z483, (R)-8-acryloyl-4-chloro-3-(2-fluorophenyl)-1-((2S,5S)-2,4,5-trimethylpiperazin-1-yl)-6,6a,7,8,9,10-hexahydro-12H-pyrazino[2,1-c]pyrido[3,4-f][1,4]oxazepin-12-one]

Source: patent publication US20230203060A1 (GENFLEET THERAPEUTICS (SHANGHAI) INC., priority 2020, published 2023)
